We go through seven molecules from patent EP1972611A1, “ARYL DIHYDRO-NAPHTHALENE COMPOUNDS, THEIR PREPARATION AND THEIR USE AS AKT INHIBITOR FOR THE PREVENTION AND TREATMENT OF CANCER” (Central South University, priority 2005, dated 2007).

Each structure is given as a SMILES string. In brackets after ≈: the same amount, converted by molar mass. Marks after values point to notes of the source that are not given here.

For assay [1], the system named is COC1 cell. Put plainly: Inhibition of COC1 cell growth measured by MTT method. In kind it is cell-based. Conditions: Homo sapiens, COC1 cells, 48 hours; for IC50: Calcusyn program. How it is done:
(§1) Cell lines of COC1, SMMC-7721, MCF-7and HT-29 were purchased from Chinese storage center for typical culture. Cells were cultured in RPMI1640 with 10% FCS at 37°C and 5% of CO2. Cells at log phase were harvested for the experiment.
(§2) Cells growth inhibition was measured with MTT method. Cells suspension of 1.0-1.2×10^5/ml were prepare and transferred to 96 well plate, 180µl per well. After further incubation for 2 hours, 20µl of various reagents were added to each well. The cells were back to incubator for 48 hours, and followed with addition of MTT of 20µl (5mg/ml)to each will. Additional incubation 6 hours later, the plate was centrifuged at 1000 rpm for 5 minutes. After aspirating supernatant, 100µl DMSO were added to each well and the optical density were measured at 490nm. The cells inhibition (IR) is calculated as : IR(%)=[1-A(treated)/A(control)]×100% , where is A is optical density. The IR was analyzed using Calcusyn program to determine the IC50 of each drug

Assay [2] relates to MCF-7 cell. Kind of assay: Inhibition of MCF-7 cell growth (MTT method). Conditions: Homo sapiens, MCF7, MCF-7 cells, 48 hours; for IC50: Calcusyn program. The class given is cell-based. How it is done:
as §1, §2

In assay [3] the test system is HT-29 cell. Kind of assay: Inhibition of HT-29 cell growth (MTT method). As to conditions: Homo sapiens, HT-29 cells, 48 hours. The class given is cell-based. How it is done:
as §1, §2
A general note: Tetrazolium dyes change colour on reduction, which living cells bring about.

Assay [4] has as its system SMMC-7721 cell. Kind of assay: Inhibition of SMMC-7721 cell growth measured by MTT method. In kind it is cell-based. As to conditions: Homo sapiens, SMMC-7721 cells, 48 hours. Here is the method: as §1, §2
The subject of assay [5] is MDA-MB-435 human breast cancer cells. Kind of assay: Growth inhibition of MDA-MB-435 cells measured with MTT method (example titled induction of apoptosis). In kind it is cell-based. Conditions: for cells growth (percentage of the control group): p value less than 0.005. Here is the method: Experimental design: MDA-MB-435 human breast cancer cells were cultured in the DMEM medium with 5% FCS. Cells were treated with VB-1 at 2 µM, 4 µM and 10 µM for 3 days. Cells were collected from control and treated groups and measured with MTT method.

Assay [6] concerns Akt. Put plainly: Inhibition of Akt activation (phosphorylation) in breast cancer cells, Western analysis. In kind it is cell-based, human. As to conditions: MDA-MB-435 cells; for inhibition of Akt activation by suppressing its phosphorylation: 12 hours, 0, 0.5 µM, 4 µM, and 8 µM, Fig. 3; for levels of total non-phosphorylated Akt protein: Western analysis; for Akt phosphorylation: dose of 4 µM. Here is the method:
Experimental Design: MDA-MB-435 human breast cancer cells were cultured in the DMEM medium with 5% FCS. When cells reached approximately 50-60% confluence, cells were treated with VB-1 and VB-2 for 12 hours at the following doses: 0, 0.5 µM, 4 µM, and 8 µM. Control and treated cells are harvested and total protein was isolated, normalized, and 45 µg of total protein was subjected to Western analysis. The expression of phosphorylated Akt was determined by using a specific anti-phosphorylated Akt antibody and normalized for total Akt protein expression.

Assay [7] deals with human ovarian tumor cells (CoC1). Kind of assay: In vivo tumor treatment model: nude mice inoculated with CoC1 tumor cells, tumor volume. Also on record: species or system Balb/c-nu mice. Conditions: for Suppression rate of tumor growth (%): vs. control (NS); for Volume (mm^3): x±s, n=4. How it is done:
Experimental Design: Human ovarian tumor cells (CoC1) were purchased from Chinese storage center for typical culture. Cells were cultured in RPMI1640 with 10% FCS. Sub-culture for every 2-3 days. Cells at log phase were harvested for the experiment. Approximately 2x10^6 CoC1 cells were injected subcutaneously into the back of the Balb/c-nu female nude mice at the age of 6-7 weeks. When tumors reached to ≥ 1000 mm^3 (about 30 days), mice bearing similar size tumors were divided into 2 groups: control (NS) and VB-2 treated group. Each group has 4 mice.
VB-2 was dissolved into DMSO and further diluted with normal saline. […] Treatment groups received drugs every other day until the termination of the experiment. All mice were sacrificed at day 20 after the first treatment. Tumor size was determined by three-dimensional measurements (mm) using a caliper. Only measurable tumors were used to calculate the mean tumor volume for each clone at each time point. Each point represents the mean of tumors ± SE. Statistical comparisons for tumor size in treated mice relative to control mice indicate: ** p < 0.01.

One may read the inhibition as the drop in the measured response relative to a control, in per cent. Broadly, the IC50 is the concentration needed to halve the response being measured.

As for `COc1cc([C@H]2c3cc(OC)c(OC)cc3C=C(C=O)[C@@H]2CO)ccc1O` [VB-7, 6,7-dimethoxy-4-(4-hydroxy-3-methoxyphenyl)-3-hydroxymethyl-3,4-dihydro (3R,4S) -2-naphthaldehyde], in assay [1], at 0.5 µg/mL the inhibition was 14.3%, the inhibition at 5 µg/mL came out at 27.6%, the inhibition at 50 µg/mL is 50% and the IC50 is 53.2 µg/mL (≈ 144 µM).
Regarding `COc1cc([C@H]2c3cc(O)c(OC)cc3C=C(CO)[C@@H]2CO)ccc1O` [VB-4, 6-hydroxy-7-methoxy-4-(4-hydroxy-3-methoxyphenyl)-2,3-dihydroxymethyl-3,4-dihydro(3R, 4S)-2-hydroynaphthalene], in assay [2], 0.1 µg/mL produced 19.7% inhibition, the inhibition at 0.3 µg/mL stood at 15.6%, at 1 µg/mL the inhibition was 12.3% and the inhibition at 3 µg/mL was determined as 13.2%. This molecule also returned an inhibition at 10 µg/mL in assay [2] of 24%. Further, in assay [1], the inhibition at 0.5 µg/mL was found to be 38.8%, the inhibition at 5 µg/mL came out at 40.2% and the inhibition at 50 µg/mL worked out at 40.6%.
In assay [2], `COc1cc2c(cc1O)[C@H](c1ccc(O[C@@H]3O[C@H](C(=O)O)[C@@H](O)[C@H](O)[C@H]3O)c(OC)c1)[C@@H](CO)C(C=O)=C2` [VB-5, 6-hydroxy-3-hydroxymethyl-4-(3-methoxyphenyl)-7-methoxy-3,4-dihydro-2-naphthaldehyde-4'-O-β-D-glucopyranosiduronic acid] gave an inhibition at 0.1 µg/mL of 13.6%, an inhibition at 0.3 µg/mL of 22%, an inhibition at 1 µg/mL of 23.2% and an inhibition at 3 µg/mL of 13.6%. Moreover, in assay [2], the inhibition at 10 µg/mL was 30.4% and the IC50 was 471 µg/mL (≈ 885 µM). Further, in assay [1], testing at 0.5 µg/mL gave an inhibition of 14.3%, at 5 µg/mL the inhibition was 28.7%, the inhibition at 50 µg/mL came out at 35.2% and the IC50 was 371 µg/mL (≈ 697 µM).
In assay [2], `COc1cc([C@H]2c3cc(O)c(OC)cc3C=C(C=O)[C@@H]2CO[C@@H]2O[C@H](CO)[C@@H](O)[C@H](O)[C@H]2O)ccc1O` [VB-3, 6-hydroxy-4-(4-hydroxy-3-methoxyphenyl)-3-glucosyloxymethyl-7-methoxy-3,4-dihydro-(3R, 4S)-2-naphthaldehyde] registered an inhibition at 0.1 µg/mL of 10.6%, an inhibition at 0.3 µg/mL of 11.3%, an inhibition at 1 µg/mL of 14% and an inhibition at 3 µg/mL of 18.5%. Moreover, in assay [2], 10 µg/mL produced 13.8% inhibition and the IC50 is 9260 µg/mL (≈ 17900 µM).
Turning to `COc1cc([C@H]2c3cc(O)c(OC)cc3C=C(C=O)[C@@H]2CO)ccc1O` [VB-1, 6-hydroxy-4-(4-hydroxy-3-methoxyphenyl)-3-hydroxymethyl-7-methoxy-3,4-dihydro-(3R, 4S)-2-naphthaldehyde], in assay [2], testing at 0.1 µg/mL gave an inhibition of 6.4%, the inhibition at 0.3 µg/mL was determined as 9.1%, the inhibition at 1 µg/mL worked out at 12.7% and at 3 µg/mL the inhibition was 13.8%. Further, in assay [2], the inhibition at 10 µg/mL came out at 41.1% and the IC50 was 58 µg/mL (≈ 163 µM). Moreover, testing at 1 µg/mL in assay [3] (1.00 µg/ml) gave an inhibition of 22.1%. The same molecule showed an inhibition at 10 µg/mL in assay [3] (10.00 µg/ml) of 32.3%. The molecule also had an inhibition at 1 µg/mL in assay [4] (1.00 µg/ml) of 20.1%. Also, 10 µg/mL produced 22.3% inhibition in assay [4] (10.00 µg/ml). This molecule also returned an inhibition at 0.4 µg/mL in assay [1] (0.4 µg/ml) of 27.1%. Besides, in assay [1], 0.5 µg/mL produced 42.7% inhibition and the IC50 was 0.63 µg/mL (≈ 1.77 µM). This molecule also came in with an inhibition at 0.6 µg/mL in assay [1] (0.6 µg/ml) of 48.1%. The molecule further came in with an inhibition at 0.8 µg/mL in assay [1] (0.8 µg/ml) of 65.9%. Besides, at 1 µg/mL the inhibition in assay [1] (1.0 µg/ml) was 66.9%. Besides, the cell inhibition result in assay [5] (2 µM, 4 µM and 10 µM for 3 days, Fig 4) was “dose dependent cell inhibition”. In addition, in assay [5] (4 µM, 3 days), the “cells growth (percentage of the control group)” value is “significantly less than the control group”. The “cells growth (percentage of the control group)” value in assay [5] (8 µM, 3 days) was “significantly less than the control group”. Besides, in assay [5] (Homo sapiens, 72 h, 10 µM, 3 days), the inhibition at 10 µM was roughly 50%. Moreover, in assay [6], the “inhibition of Akt activation by suppressing its phosphorylation” value was “dose-dependent inhibition”. In addition, in assay [6] (12 hours), the “levels of total non-phosphorylated Akt protein” value is recorded as “no effects” and the Akt phosphorylation entry is on record as “significantly block”. Moreover, in assay [6] (12 hours, dose of 8 µM), the Akt activation entry is listed as “completely blocks”.
For `COc1ccc(C2c3cc(OC)c(OC)cc3C=C(C=O)C2CO)cc1OC` (centres unmarked) [VB-6, 6-methoxy-4-(4-methoxy-3-methoxyphenyl)-3-hydroxymethyl-7-methoxy-3,4dihydro-2-naphthaldehyde], in assay [2], 0.1 µg/mL produced 10.9% inhibition, the inhibition at 0.3 µg/mL came out at 19.9%, the inhibition at 1 µg/mL is 22.8% and at 3 µg/mL the inhibition was 41.2%. Moreover, in assay [2], the inhibition at 10 µg/mL was determined as 46.4% and the IC50 was 11.2 µg/mL (≈ 29 µM). In assay [1], the inhibition at 0.5 µg/mL amounted to 37%, testing at 5 µg/mL gave an inhibition of 45.6%, the inhibition at 50 µg/mL came out at 57.1% and the IC50 is 11.1 µg/mL (≈ 28.8 µM).
Take `COc1cc([C@H]2c3c(ccc(O)c3OC)C=C(C=O)[C@@H]2CO)ccc1O` [VB-2, 6-hydroxy-4-(4-hydroxy-3-methoxyphenyl)-3-hydroxymethyl-5-methoxy-3,4-dlhydro(3R, 4S)-2-naphthaldehyde]: the “Suppression rate of tumor growth (%)” value in assay [7] (day 5, dosage 5 mg/kg, i.p. every other day) came to 7.8%. Besides, the “Suppression rate of tumor growth (%)” value in assay [7] (day 10, dosage 5 mg/kg, i.p. every other day) came to 66.5%. Further, the “Suppression rate of tumor growth (%)” value in assay [7] (day 15, dosage 5 mg/kg, i.p. every other day) came out at 64.5%. In assay [7] (day 20, dosage 5 mg/kg, i.p. every other day), the “Suppression rate of tumor growth (%)” value came out at 55.7%. Besides, the “Volume (mm^3)” value in assay [7] (initial tumor volume before treatment, dosage 5 mg/kg) was found to be 1543±1466 mm^3. Besides, in assay [7] (tumor volume at day 5, dosage 5 mg/kg, i.p. every other day), the “Volume (mm^3)” value came out at 2542±1718 mm^3. Besides, the “Volume (mm^3)” value in assay [7] (tumor volume at day 10, dosage 5 mg/kg, i.p. every other day) is 2131±1207* mm^3. In addition, the “Volume (mm^3)” value in assay [7] (tumor volume at day 15, dosage 5 mg/kg, i.p. every other day) was 3600±1755* mm^3. In addition, the “Volume (mm^3)” value in assay [7] (tumor volume at day 20, dosage 5 mg/kg, i.p. every other day) is 4495±2087** mm^3. In assay [2], this molecule gave an inhibition at 0.1 µg/mL of 10.6%, an inhibition at 0.3 µg/mL of 15.8%, an inhibition at 1 µg/mL of 17.6% and an inhibition at 3 µg/mL of 26.4%. For the same molecule, in assay [2], the inhibition at 10 µg/mL was 28.7% and the concentration for half-maximal inhibition (IC50) was 226 µg/mL (≈ 635 µM). For the same molecule, in assay [1], the inhibition at 0.5 µg/mL turned out to be 39.9%, testing at 5 µg/mL gave an inhibition of 34.1% and testing at 50 µg/mL gave an inhibition of 39.5%. Moreover, the “inhibition of Akt activation by suppressing its phosphorylation” value in assay [6] was “dose-dependent inhibition”. In assay [6] (12 hours), the “levels of total non-phosphorylated Akt protein” value was “no effects” and the Akt phosphorylation result is “significantly block”.
